The values below come from patent US6613761B1, “Benzoxazepine compounds, their production and use” (Takeda Chemical Industries, Ltd., priority 1995, dated 2003).

As usually defined, the melting point is the temperature of the solid-liquid transition. In general, IC50 refers to the concentration at which inhibition is half-maximal.

In series [1] the test system is Cholesterol biosynthesis in the liver. Nature of the series: Assay of cholesterogenesis in the liver. The class given is in vivo. Conditions: Wistar fatty rats, liver total sterol radioactivity from 14C sodium acetate. As to the method: Cholesterol biosynthesis in the liver of a rat was assayed as follows. Six-week old Wistar fatty rats were given orally a test compound [Compound 4-2 (suspended in a 0.5% methyl cellulose solution)], while the control group was orally given only a 0.5% methyl cellulose solution. One hour later, sodium acetate labelled with radioisotope ^14C (manufactured by Amasham) was given intravenously at the tail (10 μCi/0.3 ml physiological saline/rat). One hour layer, rats were sacrificed by decapitation, and 1.5 g of the first lobe of the liver was removed, which was saponified by immersing in 3.9 ml of an alkaline ethanol solution (KOH:EtOH=1:2) at 100° C. for two hours, followed by extraction with 5 ml each portion of petroleum ether three times. The extract solution was dried, which was dissolved in 3 ml of ethanol:acetone (1:1). To the solution was added 2 ml of a 0.5% digitonin-ethanol solution. The mixture was left standing for one hour. Resulting precipitates were collected as total sterol, and the radioactivity was measured by means of a liquid scintillation counter.

The target in series [2] is T1, squalene synthetase (Homo sapiens, UniProt P37268).
T1 construct: This suspension was used as the enzyme solution; endogenous in cells; host or cells: HepG2 human hepatic carcinoma cells; membrane fraction (105000×g sediment) of the sonicate
T1 sequence (P37268 1-417): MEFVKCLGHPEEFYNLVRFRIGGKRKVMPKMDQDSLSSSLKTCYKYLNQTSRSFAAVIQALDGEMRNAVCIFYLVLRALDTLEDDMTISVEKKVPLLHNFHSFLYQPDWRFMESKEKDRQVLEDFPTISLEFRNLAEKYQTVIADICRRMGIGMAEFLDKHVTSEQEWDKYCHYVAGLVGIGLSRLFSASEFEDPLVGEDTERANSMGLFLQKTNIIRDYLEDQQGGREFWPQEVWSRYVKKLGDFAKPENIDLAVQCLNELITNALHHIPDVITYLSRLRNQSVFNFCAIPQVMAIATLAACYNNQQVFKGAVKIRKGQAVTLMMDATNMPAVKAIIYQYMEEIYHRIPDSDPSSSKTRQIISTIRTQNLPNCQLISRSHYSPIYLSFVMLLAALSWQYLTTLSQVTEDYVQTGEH
Nature of the series: Squalene synthetase inhibitory activity (human-derived enzyme prepared from HepG2 cells). Conditions: [1-3H] farnesyl pyrophosphate, 37° C., 45 minutes, read-out: Inhibitory Activity (IC50, 10^−9 M). It is filed as biochemical. How it is done: The squalene synthetase inhibitory activity was assayed as follows with the enzyme solutions prepared in accordance with the method described below.
More specifically, an enzyme solution (protein content 0.8 μg) prepared in accordance with the method described below was added to a solution (total volume 50 μl)) containing 5 μM [1-^3H] farnesyl pyrophosphate (specific activity 25 μCi/mole), 1 mM NADPH (nicotinamide adenine dinucleotide phosphate of reduced type), 5 mM MgCl2, 6 mM glutathione, a 100 mM buffer solution of potassium phosphate (pH 7.4) and a test drug (used as an aqueous solution or a DMSO solution), then the reaction was allowed to proceed at 37° C. for 45 minutes. To the reaction mixture was added 150 μl of a mixture of chloroform and methanol (1:2) to suspend the reaction, followed by adding 50 Al of chloroform and 50 μl of a 3N solution of sodium hydroxide. 50 μl of the chloroform layer (lower layer) containing the reaction mixture having squalene as the principal component and 3 ml of toluene-based liquid scintillator were mixed, and its radioactivity was determined by means of a liquid scintillation counter.
The squalene synthetase inhibitory activity was expressed in terms of the concentration inhibiting by 50% the radioactivity taken into the chloroform layer (IC50, molar concentration (M)), as shown in Table 7. Preparation of human-derived enzyme
Human hepatic carcinoma cells HepG2 (about 1×10^9 cells) obtained by incubation on a Dulbecco-modified Eagle's medium (37° C. in the presence of 5% CO2) containing 10% fetal bovine serum were suspended in 10 ml of an ice-cooled buffer solution (100 mM potassium phosphate buffer (pH 7.4), 30 mM nicotinamide and 2.5 mM MgCl2]. The cells were crashed by means of ultrasonication (for 30 seconds, twice). The sonicate thus obtained was subjected to centrifugation for 20 minutes (4° C.) with 10000×g. The supernatant layer was subjected to further centrifugation for 90 minutes (4° C.) with 105000×g. The sediment was then suspended in an ice-cooled 100 mM potassium phosphate buffer (pH 7.4), which was again subjected to centrifugation for 90 minutes (4° C.) with 105000×g. This fraction was suspended in an ice-cooled 100 mM potassium phosphate buffer solution (pH 7.4) (about 4 mg/ml protein concentration). This suspension was used as the enzyme solution.

For `COc1cccc([C@H]2O[C@H](CC(=O)N3CCC(CC(=O)O)CC3)C(=O)N(CC(C)(C)C)c3ccc(Cl)cc32)c1OC` [Compound 4-2, N-[(3R,5S)-7-chloro-5-(2,3-dimethoxyphenyl)-1-neopentyl-2-oxo-1,2,3,5-tetrahydro-4,1-benzoxazepine-3-acetyl]piperidine-4-acetic acid], the melting point lay within 137 to 140 °C. Further, in series [1] (0.6 mg/kg given orally), the “Cholesterogenesis inhibitory rate (%)” value is given as 80.1%. Moreover, in series [1] (2.0 mg/kg given orally), the “Cholesterogenesis inhibitory rate (%)” value worked out at 90.4%. The IC50 in series [2] was determined as 22 nM.
In turn, `COc1cccc([C@H]2O[C@H](Cc3nc(=O)o[nH]3)C(=O)N(CC(C)(C)C)c3ccc(Cl)cc32)c1OC` [Compound 8, (3R,5S)-7-Chloro-5-(2,3-dimethoxyphenyl)-1-neopentyl-3-(2,5-dihydro-5-oxo-1,2,4-oxadiazol-3-yl) methyl-1,2,3,5-tetrahydro-4,1-benzoxazepin-2-one] returned a melting point of 130 to 133 °C. In series [2], the IC50 was determined as 12 nM.
`COc1cccc([C@H]2O[C@H](CC(=O)N3CCC(O)(C(=O)O)CC3)C(=O)N(CC(C)(C)C)c3ccc(Cl)cc32)c1OC` [Compound 4-19] showed a melting point of 156 to 159 °C. In addition, the IC50 in series [2] amounted to 18 nM.
In turn, `COc1cccc([C@H]2O[C@H](CC(=O)NS(C)(=O)=O)C(=O)N(CC(C)(C)CO)c3ccc(Cl)cc32)c1OC` [Compound 19, (3R,5S)-N-methylsulfonyl-7-chloro-5-(2,3-dimethoxyphenyl)-1-(3-hydroxy-2,2-dimethylpropyl)-2-oxo-1,2,3,5-tetrahydro-4,1-benzoxazepine-3-acetamide] yielded a melting point of 221 to 223 °C. In series [2], the IC50 was found to be 32 nM.
For `COc1cccc([C@H]2O[C@H](CC(=O)N3CCC(C(=O)NS(C)(=O)=O)CC3)C(=O)N(CC(C)(C)C)c3ccc(Cl)cc32)c1OC` [Compound 18], the melting point lay in the range of 187 to 189 °C. Moreover, the IC50 in series [2] was 15 nM.
Regarding `COc1cccc([C@H]2O[C@H](CC(=O)N[C@@H](Cc3ccccc3)C(=O)O)C(=O)N(CC(C)(C)C)c3ccc(Cl)cc32)c1OC` [Compound 4-15], the melting point was 134 to 136 °C. Further, in series [2], the IC50 was 19 nM.
`COc1cccc([C@H]2O[C@H](CC(=O)N3CCC(CP(=O)(O)O)CC3)C(=O)N(CC(C)(C)C)c3ccc(Cl)cc32)c1OC` [Compound 23, N-[(3R,5S)-7-chloro-5-(2,3-dimethoxyphenyl)-1-neopentyl-2-oxo-1,2,3,5-tetrahydro-4,1-benzoxazepine-3-acetyl]-4-phosphonomethylpiperidine]: the melting point is 174 to 175 °C. Besides, the IC50 in series [2] came out at 12 nM.
The compound `COc1cccc([C@H]2O[C@H](CC(=O)N3CCC(Cc4nnn[nH]4)CC3)C(=O)N(CC(C)(C)C)c3ccc(Cl)cc32)c1OC` [Compound 24, 5-[[N-[(3R,5S)-7-chloro-5-(2,3-dimethoxyphenyl)-1-neopentyl-2-oxo-1,2,3,5-tetrahydro-4,1-benzoxazepine-3-acetyl]piperidin-4-yl]methyl]1H(or 3H)-tetrazole] registered a melting point of 168 to 170 °C. Further, in series [2], the IC50 came out at 17 nM.
